Experiments:
Assay type in all cases: in vivo
[1] = system: barnyardgrass (Echinochloa crus-galli); experiment: Test A preemergence; settings: Echinochloa crus-galli, pre-emergence, 240 h, Preemergence; for pest or weed control at 125 g/ha: 125 g ai/ha, visual injury rating after approximately 10 d, read-out: Barnyardgrass plant response rating (0 to 100 scale, 0 is no effect, 100 is complete control); for pest or weed control at 31 g/ha: 31 g ai/ha, 0 to 100 scale (0 no effect, 100 complete control), read-out: Plant response rating, Barnyardgrass
Procedure, shortened: (§1)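 Treatment is preemergence as a directed soil spray after planting, or postemergence at the one- to two-leaf stage, with test chemical in a non-phytotoxic solvent mixture plus surfactant. Plants stay in the greenhouse about 10 d before visual injury scoring on a 0 to 100 scale versus untreated controls.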

[2] = system: giant foxtail (Setaria faberii); experiment: Test A preemergence; settings: Setaria faberi, pre-emergence, 240 h, Preemergence; for pest or weed control at 125 g/ha: 125 g ai/ha, visual injury rating after approximately 10 d, read-out: Foxtail, Giant plant response rating (0 to 100 scale, 0 is no effect, 100 is complete control); for pest or weed control at 31 g/ha: 31 g ai/ha, 0 to 100 scale (0 no effect, 100 complete control), read-out: Plant response rating, Foxtail, Giant
Procedure, shortened: as §1

[3] = system: ryegrass, Italian (Italian ryegrass, Lolium multiflorum); experiment: Test A preemergence; settings: Lolium multiflorum, pre-emergence, 240 h, Preemergence; for pest or weed control at 31 g/ha: 31 g ai/ha, 0 to 100 scale where 0 is no effect and 100 is complete control, read-out: Ryegrass, Italian plant response rating; for pest or weed control at 125 g/ha: 125 g ai/ha, visual injury rating after approximately 10 d, read-out: Ryegrass, Italian plant response rating (0 to 100 scale, 0 is no effect, 100 is complete control)
Procedure, shortened: as §1

Kochia (Kochia scoparia) [4] = experiment: Test A preemergence; settings: Bassia scoparia, pre-emergence, 240 h, Preemergence; for pest or weed control at 31 g/ha: 31 g ai/ha, 0 to 100 scale where 0 is no effect and 100 is complete control, read-out: Kochia plant response rating; for pest or weed control at 125 g/ha: 125 g ai/ha, visual injury rating after approximately 10 d, read-out: Kochia plant response rating (0 to 100 scale, 0 is no effect, 100 is complete control)
Procedure, shortened: as §1

[5] = system: pigweed (Amaranthus retroflexus); experiment: Test A preemergence; settings: Amaranthus retroflexus, pre-emergence, 240 h, Preemergence; for pest or weed control at 31 g/ha: 31 g ai/ha, 0 to 100 scale where 0 is no effect and 100 is complete control, read-out: Pigweed plant response rating; for pest or weed control at 125 g/ha: 125 g ai/ha, visual injury rating after approximately 10 d, read-out: Pigweed plant response rating (0 to 100 scale, 0 is no effect, 100 is complete control)
[6] = system: ragweed (common ragweed, Ambrosia elatior); experiment: Test A preemergence; settings: Ambrosia artemisiifolia, pre-emergence, 240 h, Preemergence; for pest or weed control at 31 g/ha: 31 g ai/ha, 0 to 100 scale where 0 is no effect and 100 is complete control, read-out: Ragweed plant response rating; for pest or weed control at 125 g/ha: 125 g ai/ha, visual injury rating after approximately 10 d, read-out: Ragweed plant response rating (0 to 100 scale, 0 is no effect, 100 is complete control)
Procedure, shortened: as §1

[7] = system: barnyardgrass (Echinochloa crus-galli); experiment: Test B flooded paddy test; settings: Echinochloa crus-galli, 250 g ai/ha, Flood; 0 to 100 scale where 0 is no effect and 100 is complete control; read-out: Barnyardgrass plant response rating
Procedure, shortened: (§2)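 Response scored visually against untreated controls, 0 = no effect and 100 = complete control, 13–15 d after treatment in the greenhouse. Compounds added to paddy water held 3 cm above soil surface. Treatment given at 2-leaf stage.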

[8] = system: sedge, umbrella (small-flower umbrella sedge, Cyperus difformis); experiment: Test B flooded paddy test; settings: Cyperus difformis, 250 g ai/ha, Flood; 0 to 100 scale where 0 is no effect and 100 is complete control; read-out: Sedge, Umbrella plant response rating
Procedure, shortened: as §2

[9] = system: ducksalad (Heteranthera limosa); experiment: Test B flooded paddy test; settings: Heteranthera limosa, 250 g ai/ha, Flood; 0 to 100 scale where 0 is no effect and 100 is complete control; read-out: Ducksalad plant response rating
Procedure, shortened: as §2

rice (Oryra sativa) = experiment: Test B flooded paddy test; settings: Oryza sativa, 250 g ai/ha, Flood; 0 to 100 scale where 0 is no effect and 100 is complete control; read-out: Rice plant response rating
Procedure, shortened: as §2

[10] = system: barnyardgrass (Echinochloa crus-galli); experiment: Test A postemergence; settings: Echinochloa crus-galli, post-emergence, 240 h, Postemergence, read-out: Plant response rating, Barnyardgrass; for pest or weed control at 125 g/ha: 125 g ai/ha, visual injury after approximately 10 d, 0 to 100 scale where 0 is no effect and 100 is complete control; for pest or weed control at 31 g/ha: 31 g ai/ha, visual injury after approx. 10 d, 0 to 100 scale, 0 no effect, 100 complete control
Procedure, shortened: as §1

[11] = system: giant foxtail (Setaria faberii); experiment: Test A postemergence; settings: Setaria faberi, post-emergence, 240 h, Postemergence, read-out: Plant response rating, Foxtail, Giant; for pest or weed control at 125 g/ha: 125 g ai/ha, visual injury after approximately 10 d, 0 to 100 scale where 0 is no effect and 100 is complete control; for pest or weed control at 31 g/ha: 31 g ai/ha, visual injury after approx. 10 d, 0 to 100 scale, 0 no effect, 100 complete control
Procedure, shortened: as §1

[12] = system: ryegrass, Italian (Italian ryegrass, Lolium multiflorum); experiment: Test A postemergence; settings: Lolium multiflorum, post-emergence, 240 h, Postemergence, read-out: Plant response rating, Ryegrass, Italian; for pest or weed control at 125 g/ha: 125 g ai/ha, visual injury after approximately 10 d, 0 to 100 scale where 0 is no effect and 100 is complete control; for pest or weed control at 31 g/ha: 31 g ai/ha, visual injury after approx. 10 d, 0 to 100 scale, 0 no effect, 100 complete control
Procedure, shortened: as §1

Kochia (Kochia scoparia) [13] = experiment: Test A postemergence; settings: Bassia scoparia, post-emergence, 240 h, Postemergence, read-out: Plant response rating, Kochia; for pest or weed control at 125 g/ha: 125 g ai/ha, visual injury after approximately 10 d, 0 to 100 scale where 0 is no effect and 100 is complete control; for pest or weed control at 31 g/ha: 31 g ai/ha, visual injury after approx. 10 d, 0 to 100 scale, 0 no effect, 100 complete control
Procedure, shortened: as §1

[14] = system: pigweed (Amaranthus retroflexus); experiment: Test A postemergence; settings: Amaranthus retroflexus, post-emergence, 240 h, Postemergence, read-out: Plant response rating, Pigweed; for pest or weed control at 125 g/ha: 125 g ai/ha, visual injury after approximately 10 d, 0 to 100 scale where 0 is no effect and 100 is complete control; for pest or weed control at 31 g/ha: 31 g ai/ha, visual injury after approx. 10 d, 0 to 100 scale, 0 no effect, 100 complete control
Procedure, shortened: as §1

[15] = system: blackgrass (Alopecurus myosuroides); experiment: Test A postemergence; settings: Alopecurus myosuroides, post-emergence, 240 h, Postemergence, read-out: Plant response rating, Blackgrass; for pest or weed control at 125 g/ha: 125 g ai/ha, visual injury after approximately 10 d, 0 to 100 scale where 0 is no effect and 100 is complete control; for pest or weed control at 31 g/ha: 31 g ai/ha, visual injury after approx. 10 d, 0 to 100 scale, 0 no effect, 100 complete control
Procedure, shortened: as §1

[16] = system: wheat (Triticum aestivum); experiment: Test A postemergence; settings: Triticum aestivum, post-emergence, 240 h, Postemergence, read-out: Plant response rating, Wheat; for plant injury at 125 g/ha: 125 g ai/ha, visual injury after approximately 10 d, 0 to 100 scale where 0 is no effect and 100 is complete control; for plant injury at 31 g/ha: 31 g ai/ha, visual injury after approx. 10 d, 0 to 100 scale, 0 no effect, 100 complete control
Procedure, shortened: as §1

[17] = system: ragweed (common ragweed, Ambrosia elatior); experiment: Test A postemergence; settings: Ambrosia artemisiifolia, post-emergence, 240 h, Postemergence, read-out: Plant response rating, Ragweed; for pest or weed control at 125 g/ha: 125 g ai/ha, visual injury after approximately 10 d, 0 to 100 scale where 0 is no effect and 100 is complete control; for pest or weed control at 31 g/ha: 31 g ai/ha, visual injury after approx. 10 d, 0 to 100 scale, 0 no effect, 100 complete control
Procedure, shortened: as §1

[18] = system: Galium (catchweed bedstraw, Galium aparine); experiment: Test A postemergence; settings: Galium, post-emergence, 240 h, Postemergence, read-out: Plant response rating, Galium; for pest or weed control at 125 g/ha: 125 g ai/ha, visual injury after approximately 10 d, 0 to 100 scale where 0 is no effect and 100 is complete control; for pest or weed control at 31 g/ha: 31 g ai/ha, visual injury after approx. 10 d, 0 to 100 scale, 0 no effect, 100 complete control
Procedure, shortened: as §1

corn (Zea mays) = experiment: Test A postemergence; settings: Zea mays, post-emergence, 240 h, Postemergence; for Corn plant response rating (crop injury, 0 = no effect, 100 = complete kill) at 125 g/ha: 125 g ai/ha, visual injury after approximately 10 d, 0 to 100 scale where 0 is no effect and 100 is complete control; for Corn plant response rating (crop injury, 0 = no effect, 100 = complete kill) at 31 g/ha: 31 g ai/ha, visual injury after approx. 10 d, 0 to 100 scale, 100 complete control
Procedure, shortened: as §1

| Structure (SMILES) | pest or weed control at 125 g/ha [1] [%] | pest or weed control at 31 g/ha [1] [%] | pest or weed control at 125 g/ha [2] [%] | pest or weed control at 31 g/ha [2] [%] | pest or weed control at 31 g/ha [3] [%] | pest or weed control at 125 g/ha [3] [%] | pest or weed control at 31 g/ha (Kochia (Kochia scoparia) [4]) [%] | pest or weed control at 125 g/ha (Kochia (Kochia scoparia) [4]) [%] | pest or weed control at 31 g/ha [5] [%] | pest or weed control at 125 g/ha [5] [%] | pest or weed control at 31 g/ha [6] [%] | pest or weed control at 125 g/ha [6] [%] | pest or weed control at 250 g/ha [7] [%] | pest or weed control at 250 g/ha [8] [%] | pest or weed control at 250 g/ha [9] [%] | pest or weed control at 250 g/ha (rice (Oryra sativa)) [%] | pest or weed control at 125 g/ha [10] [%] | pest or weed control at 31 g/ha [10] [%] | pest or weed control at 125 g/ha [11] [%] | pest or weed control at 31 g/ha [11] [%] | further results |
| --- | --- | --- | --- | --- | --- | --- | --- | --- | --- | --- | --- | --- | --- | --- | --- | --- | --- | --- | --- | --- | --- |
| O=C(Nc1cccc(F)c1F)[C@H]1C(=O)N(O)CC[C@@H]1c1ccccc1 [Compound 1007] | 0 | 0 | 0 | 0 | 0 | 0 | 0 | 0 | 0 | 0 | 0 | 0 | 0 | 0 | 0 | 0 | 0 | 0 | 0 | 0 | pest or weed control at 125 g/ha [12]: 0%; pest or weed control at 31 g/ha [12]: 0%; pest or weed control at 125 g/ha (Kochia (Kochia scoparia) [13]): 0%; pest or weed control at 31 g/ha (Kochia (Kochia scoparia) [13]): 0%; pest or weed control at 125 g/ha [14]: 0%; pest or weed control at 31 g/ha [14]: 0%; pest or weed control at 125 g/ha [15]: 0%; pest or weed control at 31 g/ha [15]: 0%; plant injury at 125 g/ha [16]: 0%; plant injury at 31 g/ha [16]: 0%; pest or weed control at 125 g/ha [17]: 0%; pest or weed control at 31 g/ha [17]: 0%; pest or weed control at 125 g/ha [18]: 0%; pest or weed control at 31 g/ha [18]: 0%; Corn plant response rating (crop injury, 0 = no effect, 100 = complete kill) at 125 g/ha (corn (Zea mays)): 0%; Corn plant response rating (crop injury, 0 = no effect, 100 = complete kill) at 31 g/ha (corn (Zea mays)): 0% |
| CN1CC[C@H](c2ccccc2C(F)(F)F)[C@@H](C(=O)Nc2ccccc2C(F)(F)F)C1=O [Compound 1008] | 0 | 0 | 0 | 0 | 0 | 0 | 0 | 0 | 0 | 0 | 0 | 0 | 0 | 0 | 95 | 0 | 0 | 0 | 0 | 0 | pest or weed control at 125 g/ha [12]: 0%; pest or weed control at 31 g/ha [12]: 0%; pest or weed control at 125 g/ha (Kochia (Kochia scoparia) [13]): 0%; pest or weed control at 31 g/ha (Kochia (Kochia scoparia) [13]): 0%; pest or weed control at 125 g/ha [14]: 0%; pest or weed control at 31 g/ha [14]: 0%; pest or weed control at 125 g/ha [15]: 0%; pest or weed control at 31 g/ha [15]: 0%; plant injury at 125 g/ha [16]: 0%; plant injury at 31 g/ha [16]: 0%; pest or weed control at 125 g/ha [17]: 0%; pest or weed control at 31 g/ha [17]: 0%; pest or weed control at 125 g/ha [18]: 0%; pest or weed control at 31 g/ha [18]: 0%; Corn plant response rating (crop injury, 0 = no effect, 100 = complete kill) at 125 g/ha (corn (Zea mays)): 0%; Corn plant response rating (crop injury, 0 = no effect, 100 = complete kill) at 31 g/ha (corn (Zea mays)): 0% |

Source: patent US12077503B2, “Substituted cyclic amides and their use as herbicides” (FMC CORPORATION, priority 2015, dated 2024)
